# In patent publication US6153592A, “Enhancing the bioavailability of proteolytically labile therapeutic agents” (Port Systems, LLC, priority 1994, dated 2000):
# Assays:
# [1] = test system: intestinal aminopeptidases; assay: Protection against degradation by aminopeptidase in vivo: YdAGFdL bioavailability after ileal dosing; set-up: species or system rats
# Procedure: The pentapeptide enkephalin analogue D-AJa-D-Leu-enkephalin (YdAGFdL) (1.0 mg) was directly ileally dosed to chronically ileally fistulated rats. Radiolabeled YdAGFdL (1.12 microgram) was dosed with each of four protecting agents: (1) decanted soy flour, <1K MW; (2) decanted and ultrafitered soy flour, 1K-30K MW; (3) pepsin-treated (FMC ACTI-MOD) soy flour, <30K MW; (4) the potent aminopeptidase inhibitor amastatin (positive control). Blood was collected from a jugular vein cannula at various times post-dosing, and intact YdAGFdL was quantified by a radiometric thin layer chromatography (TLC) method utilizing reverse phase KC-18 TLC plates (Whatman Co.). The TLC plates were developed with 30:701 -propanol/0.1 M phosphate buffer (pH 4.1).
# [2] = in vivo, cited from earlier work
Structure (SMILES),"% YdAGFdL Bioavailability ([1]; protecting agent 1 mg, ileally fistulated rats) [%]",protection against degradation of YdAGFdL by intestinal aminopeptidases (in words) ([1]; rats),bioavailability following oral administration ([2]; po) [%],bioavailability following vaginal administration [2] [%]
CC(C)C[C@@H](N)[C@H](O)C(=O)N[C@H](C(=O)N[C@H](C(=O)N[C@@H](CC(=O)O)C(=O)O)C(C)C)C(C)C [Amastatin],8.76 ± 4.47,effective,,
CCNC(=O)[C@@H]1CCCN1C(=O)[C@H](CCCNC(=N)N)NC(=O)[C@H](CC(C)C)NC(=O)[C@@H](CC(C)C)NC(=O)[C@H](Cc1ccc(O)cc1)NC(=O)[C@H](CO)NC(=O)[C@H](Cc1c[nH]c2ccccc12)NC(=O)[C@H](Cc1c[nH]cn1)NC(=O)[C@@H]1CCC(=O)N1 [leuprolide],,,0.05,38
